One assay deals with T1, human STAT6/pIL-4Rα (Homo sapiens, UniProt P42226).
T1 construct: histidine tag
T1 sequence (P42226 123-658): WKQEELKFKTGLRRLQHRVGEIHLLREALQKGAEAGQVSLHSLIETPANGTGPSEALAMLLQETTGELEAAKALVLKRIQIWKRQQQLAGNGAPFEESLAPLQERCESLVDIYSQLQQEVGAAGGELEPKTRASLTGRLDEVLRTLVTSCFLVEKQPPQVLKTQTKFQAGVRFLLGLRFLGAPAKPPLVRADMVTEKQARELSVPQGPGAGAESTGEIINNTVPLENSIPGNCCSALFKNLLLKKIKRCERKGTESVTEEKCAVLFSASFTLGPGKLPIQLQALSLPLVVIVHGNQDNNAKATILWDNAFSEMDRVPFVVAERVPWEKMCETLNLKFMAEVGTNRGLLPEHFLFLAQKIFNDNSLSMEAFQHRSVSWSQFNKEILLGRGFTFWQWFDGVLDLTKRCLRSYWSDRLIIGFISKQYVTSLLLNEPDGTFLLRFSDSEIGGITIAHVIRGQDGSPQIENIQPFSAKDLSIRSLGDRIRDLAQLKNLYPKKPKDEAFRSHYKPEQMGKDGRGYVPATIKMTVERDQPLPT
Put plainly: Binding inhibitory activity between human STAT6/pIL-4Rα by fluorescence polarization method. As to conditions: rhSTAT6 (123-658) / FAM-pIL-4Rα peptide. In outline: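 His-tagged human STAT6 (residues 123–658, E. coli-expressed) was preincubated with compound for 30 min at RT in the dark, in buffer e.g. 50 mM NaCl, 10 mM HEPES pH 7.0, 1 mM DTT, 1 mM EDTA, 0.01% NP-40. FAM-pIL-4Rα peptide was then added for 30 min. Fluorescence polarisation was read at 485/535 nm, with IC50 interpolated linearly between two points flanking 50%.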

For another assay, the system named is human STAT6. The assay can be described thus: Human STAT6 dependent reporter activity (IL-4 stimulated STAT6 reporter assay using STAT6-HEK293 cells). The format is cell-based. As to conditions: Homo sapiens, IL-4 stimulation, luciferase activity, read-out: Inhibition rate (%); for inhibition at 0.1 µM: compound 0.1 μmol/L; for inhibition at 1 µM: compound 1 μmol/L. Background: In a reporter assay the amount or activity of a reporter protein is the signal.

As to `COCCn1c(-c2ccc(-n3c(C)nn(C)c3=O)cc2)cc2ccnc(C(=O)Nc3cccc(C(=O)Nc4cccn(C)c4=O)c3)c21` [Ex. 196], the IC50 on human STAT6/pIL-4Rα turned out to be 270 nM. Besides, the inhibition at 0.1 µM in the assay with human STAT6 is 81%.

On human STAT6/pIL-4Rα, `COCCn1c(-c2ccc(-n3c(C)nn(C)c3=O)cc2)cc2ccnc(C(=O)Nc3cccc(C(=O)Nc4cccc(OC)n4)c3)c21` [Ex. 197] showed an IC50 of 250 nM. Also, the inhibition at 0.1 µM in the assay on human STAT6 came to 73%.

At human STAT6/pIL-4Rα, `CCn1c(-c2ccc(-n3c(C)nn(C)c3=O)cc2)cc2ccnc(C(=O)Nc3cccc(C(=O)Nc4cc(Cl)n(C)n4)c3)c21` [Ex. 198] displayed an IC50 of 410 nM. In addition, in the assay on human STAT6, the inhibition at 0.1 µM stood at 96%.

With `Cc1nn(C)c(=O)n1-c1ccc(-c2cc3ccnc(C(=O)Nc4cccc(C(=O)Nc5cccn(C)c5=O)c4)c3n2CC2CC2)cc1` [Ex. 199], the IC50 on human STAT6/pIL-4Rα worked out at 270 nM. The inhibition at 0.1 µM in the assay with human STAT6 turned out to be 67%.

On human STAT6/pIL-4Rα, `Cc1nn(C)c(=O)n1-c1ccc(-c2cc3ccnc(C(=O)Nc4cccc(C(=O)Nc5cccn(C)c5=O)c4)c3n2CC2(C#N)CC2)cc1` [Ex. 200] had a half-inhibitory concentration (IC50) of 230 nM. For the same molecule, in the assay on human STAT6, the inhibition at 0.1 µM was found to be 53% and the inhibition at 1 µM turned out to be 99%.

Take `CCn1c(-c2ccc(-n3c(C)nn(C)c3=O)cc2)cc2ccnc(C(=O)Nc3cccc(C(=O)Nc4ccn(C)n4)c3)c21` [Ex. 201]: the IC50 on human STAT6/pIL-4Rα stood at 310 nM. The inhibition at 0.1 µM in the assay on human STAT6 stood at 99%.

Molecule `COCCn1c(-c2ccc(-n3c(C)nn(C)c3=O)cc2)cc2ccnc(C(=O)Nc3cccc(C(=O)Nc4cc(Cl)n(C)n4)c3)c21` [Ex. 202] yielded a half-inhibitory concentration (IC50) at human STAT6/pIL-4Rα of 340 nM. Further, the inhibition at 0.1 µM in the assay with human STAT6 was 95%.

`CCn1c(-c2ccc(-n3c(C)nn(C)c3=O)cc2)cc2cncc(C(=O)Nc3ccc(F)c(C(N)=O)c3)c21` [Ex. 216]: the IC50 at human STAT6/pIL-4Rα stood at 430 nM. In the assay on human STAT6, the inhibition at 0.1 µM amounted to 7% and the inhibition at 1 µM amounted to 42%.

`CCn1c(-c2ccc(N3C(=O)C(C)CC3C)cc2)nc2cc(C(F)(F)F)cc(C(=O)Nc3cccc(C(N)=O)c3F)c21` (stereo not drawn) [Ex. 218] registered an IC50 on human STAT6/pIL-4Rα of 680 nM. For the same molecule, in the assay on human STAT6, the inhibition at 0.1 µM turned out to be 38% and the inhibition at 1 µM is 89%.

As usually defined, the IC50 is the concentration needed to halve the response being measured. By inhibition is commonly meant the relative decrease from the control value, in per cent.

Values taken from patent publication US20260092054A1, “FUSED RING COMPOUND AND PHARMACEUTICAL CONTAINING SAME” (KAKEN PHARMACEUTICAL CO., LTD., priority 2022, published 2026).
